This assay deals with T1, PctA dCache_1 domain (Pseudomonas aeruginosa, UniProt G3XD24).
T1 sequence (G3XD24 32-276 limits assumed): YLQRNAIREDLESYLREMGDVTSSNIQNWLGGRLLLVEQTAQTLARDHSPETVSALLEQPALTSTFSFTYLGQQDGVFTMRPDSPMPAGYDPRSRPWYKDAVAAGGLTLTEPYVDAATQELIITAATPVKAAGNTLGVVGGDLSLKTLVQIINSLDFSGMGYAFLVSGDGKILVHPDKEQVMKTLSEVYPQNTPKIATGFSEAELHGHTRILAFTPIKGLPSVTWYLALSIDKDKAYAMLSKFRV
Put plainly: isothermal titration calorimetry. The class given is binding. For orientation: Isothermal titration calorimetry measures the heat released or taken up as one component is titrated into another.

In the case of `C[C@H](N)C(=O)O` [L-Ala], the KD entry is “Isothermal titration calorimetry study of L-Ala binding to the wild type and the mutated”.
